For 53 molecules, IC50 results are on record in US11242361B2 (Proteostasis Therapeutics, Inc., priority 2013, dated 2022).

For this assay, the target named is USP14 (Homo sapiens (Human), UniProt P54578). The assay is described as follows: USP14 Inhibition Assay. The class given is biochemical. The settings on record: average value from a minimum of two experimental determinations, read-out: IC50 Category. Here is the method: Example 17: USP14 Inhibition Assay
Chain of USP14 (P54578 whole entry, looked up): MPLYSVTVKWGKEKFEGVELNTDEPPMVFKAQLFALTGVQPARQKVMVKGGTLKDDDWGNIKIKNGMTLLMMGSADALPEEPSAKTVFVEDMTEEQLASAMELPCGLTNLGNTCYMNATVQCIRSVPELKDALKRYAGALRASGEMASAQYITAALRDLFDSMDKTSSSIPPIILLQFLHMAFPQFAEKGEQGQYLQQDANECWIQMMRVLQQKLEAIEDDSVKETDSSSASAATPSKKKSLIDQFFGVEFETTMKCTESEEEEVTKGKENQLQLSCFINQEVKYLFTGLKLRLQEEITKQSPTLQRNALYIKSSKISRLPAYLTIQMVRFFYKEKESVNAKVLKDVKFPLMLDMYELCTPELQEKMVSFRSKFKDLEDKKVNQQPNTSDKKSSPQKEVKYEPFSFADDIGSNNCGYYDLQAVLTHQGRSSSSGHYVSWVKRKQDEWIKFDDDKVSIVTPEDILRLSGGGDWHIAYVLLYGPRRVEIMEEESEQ
“I” in the Table below designates an IC50 of >5 μM, “II” in the Table below designates and IC50 between 0.5 and 5 μM, and “III” designates an IC50<0.5 μM. The IC50 values in the Table below represent the average value from a minimum of two experimental determinations.
With “4-(2-Methyl-3-(2-(piperidin-1-yl)acetyl)-1H-indol-1-yl)benzonitrile [Compound 160]”, the concentration for half-maximal inhibition (IC50) (usually the concentration that inhibits the measured activity by half) is < 500 nM.
`O=C(CN1CCC(O)CC1)c1cn(-c2ccc(Cl)cc2)c2ccccc12` [Compound 30]: the concentration for half-maximal inhibition (IC50) was > 5000 nM.
For `O=C(CN1CCCCC1)c1cn(-c2ccc(Cl)cc2)c2ccccc12` [Compound 31] the value was > 5000 nM; for `O=C(CN1CCCC1)c1cn(-c2ccc(Cl)cc2)c2ccccc12` [Compound 34], > 5000 nM; for `Cc1c(C(=O)CN2CCC(O)CC2)c2ccccc2n1-c1ccc(Cl)cc1` [Compound 86], < 500 nM.
For `Cc1c(C(=O)CN2CCCCC2)c2ccccc2n1-c1ccc(Cl)cc1` [Compound 87] the value was < 500 nM; for `Cc1c(C(=O)CN2CCCC2)c2ccccc2n1-c1ccc(Cl)cc1` [Compound 88], < 500 nM; for `Cc1c(C(=O)CN2CCCCC2)c2cc(F)ccc2n1-c1ccc(Cl)cc1` [Compound 98], < 500 nM.
Consider `Cc1c(C(O)CN2CCCCC2)c2ccccc2n1-c1ccc(Cl)cc1` (centres unmarked) [Compound 106, 1-(1-(4-Chlorophenyl)-2-methyl-1H-indol-3-yl)-2-(piperidin-1-yl)ethan-1-ol], for which the half-inhibitory concentration (IC50) was > 5000 nM.
In the case of `Cc1c(C(=O)CN2CCCCC2)c2ccccc2n1-c1ccc(C(N)=O)cc1` [Compound 108], the IC50 is > 5000 nM.
`O=C(CN1CCCCC1)c1cn(-c2ccc(Cl)cc2)c2cc(CO)ccc12` [Compound 115, 1-(1-(4-Chlorophenyl)-6-(hydroxymethyl)-1H-indol-3-yl)-2-(piperidin-1-yl)ethan-1-one]: the IC50 was > 5000 nM.
With `Cc1c(C(=O)CC2CCCCC2)c2ncccc2n1-c1ccc(C#N)cc1` [Compound 116], the IC50 was > 5000 nM.
For `CC(=O)OCc1ccc2c(C(=O)CN3CCCCC3)cn(-c3ccc(Cl)cc3)c2c1` [Compound 118, (1-(4-Chlorophenyl)-3-(2-(piperidin-1-yl)acetyl)-1H-indol-6-yl)methyl Acetate] the value was > 5000 nM; for `CNCc1ccc2c(C(=O)CN3CCCCC3)cn(-c3ccc(Cl)cc3)c2c1` [Compound 119, 1-(1-(4-Chlorophenyl)-6-((methylamino)methyl)-1H-indol-3-yl)-2-(piperidin-1-yl)ethan-1-one], > 5000 nM.
As to `O=C(CN1CCCCC1)c1cn(-c2ccc(Cl)cc2)c2cc(O)ccc12` [Compound 120], the 50% inhibitory concentration (IC50) is > 5000 nM.
For `COC(=O)c1ccc2c(C(O)CN3CCCCC3)c(C)n(-c3ccc(Cl)cc3)c2c1` (centres unmarked) [Compound 126, Methyl 1-(4-Chlorophenyl)-3-(1-hydroxy-2-(piperidin-1-yl)ethyl)-2-methyl-1H-indole-6-carboxylate] the value was > 5000 nM; for `Cc1c(C(=O)CN2CCCCC2)c2nc(O)ccc2n1-c1ccc(C#N)cc1` [Compound 127, 4-(5-Hydroxy-2-methyl-3-(2-(piperidin-1-yl)acetyl)-1H-pyrrolo[3,2-b]pyridin-1-yl)benzonitrile], > 5000 nM; for `Cc1[nH]c2cccnc2c1C(=O)CN1CCCCC1` [Compound 128, 1-(2-Methyl-1H-pyrrolo[3,2-b]pyridin-3-yl)-2-(piperidin-1-yl)ethan-1-one], > 5000 nM.
The value for `Cc1c(C(O)CN2CCCCC2)c2ccc(CO)cc2n1-c1ccc(Cl)cc1` (centres unmarked) [Compound 130, 1-(1-(4-Chlorophenyl)-6-(hydroxymethyl)-2-methyl-1H-indol-3-yl)-2-(piperidin-1-yl)ethan-1-ol] was > 5000 nM; that for `O=C(CN1CCCCC1)c1c(O)n(-c2ccc(Cl)cc2)c2ccccc12` [Compound 131, 1-(1-(4-Chlorophenyl)-2-hydroxy-1H-indol-3-yl)-2-(piperidin-1-yl)ethan-1-one] was > 5000 nM; that for `COc1c(C(=O)CN2CCCCC2)c2ccccc2n1-c1ccc(Cl)cc1` [Compound 132, 1-(1-(4-Chlorophenyl)-2-methoxy-1H-indol-3-yl)-2-(piperidin-1-yl)ethan-1-one] was > 5000 nM.
As for `CCOC(=O)CCc1ccc2c(C(=O)CN3CCCCC3)c(C)n(-c3ccc(C#N)cc3)c2c1` [Compound 133, Ethyl 3-(1-(4-Cyanophenyl)-2-methyl-3-(2-(piperidin-1-yl)acetyl)-1H-indol-6-yl)propanoate], the 50% inhibitory concentration (IC50) is < 500 nM.
For `Cc1c(C(=O)CN2CCCCC2)c2cccnc2n1-c1ccc(C#N)cc1` [Compound 141, 4-(2-Methyl-3-(2-(piperidin-1-yl)acetyl)-1H-pyrrolo[2,3-b]pyridin-1-yl)benzonitrile] the value was 500 to 5000 nM.
Take `Cc1c(C(=O)CN2CCC(NC(=O)OC(C)(C)C)CC2)c2ccccc2n1-c1ccc(Cl)cc1` [Compound 142]: the IC50 lay in the range of 500 to 5000 nM.
Turning to `Cc1c(C(=O)CN2CCCCC2)c2ccncc2n1-c1ccc(C#N)cc1` [Compound 144, 4-(2-Methyl-3-(2-(piperidin-1-yl)acetyl)-1H-pyrrolo[2,3-c]pyridin-1-yl)benzonitrile], the IC50 is 500 to 5000 nM.
For `Cc1c(C(=O)CN2CCCCC2)c2cc(Oc3ccccc3)ccc2n1-c1ccc(Cl)cc1` [Compound 145] the value was 500 to 5000 nM; for `COc1cccc2c(C(=O)CN3CCCCC3)c(C)n(-c3ccc(C#N)cc3)c12` [Compound 146], 500 to 5000 nM; for `Cc1c(C(=O)CN2CCC(NC(=O)c3ccc(N=[N+]=[N-])cc3)CC2)c2ccccc2n1-c1ccc(Cl)cc1` [Compound 147], 500 to 5000 nM.
For `Cc1c(C(=O)CN2CCCCC2)c2ccc(O)cc2n1-c1ccc(Cl)cc1` [Compound 148, 1-(1-(4-Chlorophenyl)-6-hydroxy-2-methyl-1H-indol-3-yl)-2-(piperidin-1-yl)ethan-1-one] the value was 500 to 5000 nM; for `Cc1c(C(=O)CN2CCCCC2)c2ncccc2n1-c1ccc(Cl)nc1` [Compound 149], 500 to 5000 nM; for `Cc1c(C(=O)CN2CCCCC2)c2cc([N+](=O)[O-])ccc2n1-c1ccc(Cl)cc1` [Compound 150], 500 to 5000 nM.
For `Cc1c(C(=O)CN2CCCCC2)c2cnccc2n1-c1ccc(C#N)cc1` [Compound 151, 4-(2-Methyl-3-(2-(piperidin-1-yl)acetyl)-1H-pyrrolo[3,2-c]pyridin-1-yl)benzonitrile] the value was 500 to 5000 nM.
`Cc1c(C(=O)CN2CCCCC2)c2ccc(CN3C(=O)c4ccccc4C3=O)cc2n1-c1ccc(Cl)cc1` [Compound 152, 2-((1-(4-Chlorophenyl)-2-methyl-3-(2-(piperidin-1-yl)acetyl)-1H-indol-6-yl)methyl)isoindoline-1,3-dione]: the IC50 was 500 to 5000 nM.
For `Cc1c(C(=O)CN2CCCCC2)c2ccc(CO[Si](C)(C)C(C)(C)C)cc2n1-c1ccc(Cl)cc1` [Compound 153, 1-(6-(((tert-Butyldimethylsilyl)oxy)methyl)-1-(4-chlorophenyl)-2-methyl-1H-indol-3-yl)-2-(piperidin-1-yl)ethan-1-one] the value was 500 to 5000 nM.
Take `COc1ccc2c(c1)c(C(=O)CN1CCCCC1)c(C)n2-c1ccc(Cl)cc1` [Compound 155]: the concentration for half-maximal inhibition (IC50) was < 500 nM.
For `Cc1ccc2c(c1)c(C(=O)CN1CCCCC1)c(C)n2-c1ccc(Cl)cc1` [Compound 156] the value was < 500 nM; for `Cc1c(C(=O)CN2CCCCC2)c2ncccc2n1-c1ccc(Cl)cc1` [Compound 161], < 500 nM.
The value for `Cc1c(C(=O)CN2CCCCC2)c2ncccc2n1-c1ccc(C#N)cc1` [Compound 162, 4-(2-Methyl-3-(2-(piperidin-1-yl)acetyl)-1H-pyrrolo[3,2-b]pyridin-1-yl)benzonitrile] was < 500 nM; that for `Cc1c(C(=O)CN2CCCCC2)c2cc(C#N)ccc2n1-c1ccc(C#N)cc1` [Compound 163] was < 500 nM.
As for `Cc1c(C(=O)CN2CCCCC2)c2ccccc2n1-c1ccc([N+](=O)[O-])cc1` [Compound 164], the IC50 is < 500 nM.
Regarding `Cc1c(C(=O)CN2CCCCC2)c2nc(F)ccc2n1-c1ccc(C#N)cc1` [Compound 165], the IC50 is < 500 nM.
For `COc1cccc2c1c(C(=O)CN1CCCCC1)c(C)n2-c1ccc(C#N)cc1` [Compound 167] the value was < 500 nM; for `Cc1c(C(=O)CN2CCCCC2)c2c(F)cccc2n1-c1ccc(C#N)cc1` [Compound 168], < 500 nM; for `Cc1ccc2c(C(=O)CN3CCCCC3)c(C)n(-c3ccc(C#N)cc3)c2c1` [Compound 169, 4-(2,6-Dimethyl-3-(2-(piperidin-1-yl)acetyl)-1H-indol-1-yl)benzonitrile], < 500 nM.
For the molecule `Cc1c(C(=O)CN2CCCCC2)c2cccc(F)c2n1-c1ccc(C#N)cc1` [Compound 170], the IC50 was < 500 nM.
As to `COC(=O)c1ccc2c(C(=O)CN3CCCCC3)c(C)n(-c3ccc(Cl)cc3)c2c1` [Compound 171], the 50% inhibitory concentration (IC50) is < 500 nM.
The value for `CC(=O)Oc1ccc2c(C(=O)CN3CCCCC3)c(C)n(-c3ccc(Cl)cc3)c2c1` [Compound 172, 1-(4-Chlorophenyl)-2-methyl-3-(2-(piperidin-1-yl)acetyl)-1H-indol-6-yl Acetate] was < 500 nM; that for `Cc1c(C(=O)CN2CCCCC2)c2nc(F)ccc2n1-c1ccc(Cl)cc1` [Compound 173] was < 500 nM; that for `Cc1c(C(=O)CN2CCCCC2)c2ccc(C#N)cc2n1-c1ccc(C#N)cc1` [Compound 175] was < 500 nM.
For `Cc1c(C(=O)CN2CCCCC2)c2ccc(F)cc2n1-c1ccc(C#N)cc1` [Compound 176] the value was < 500 nM; for `COc1ccc2c(n1)c(C(=O)CN1CCCCC1)c(C)n2-c1ccc(C#N)cc1` [Compound 177, 4-(5-Methoxy-2-methyl-3-(2-(piperidin-1-yl)acetyl)-1H-pyrrolo[3,2-b]pyridin-1-yl)benzonitrile], < 500 nM; for `COc1ccc2c(C(=O)CN3CCCCC3)c(C)n(-c3ccc(Cl)cc3)c2c1` [Compound 178], < 500 nM.
For `Cc1c(C(=O)CN2CCCCC2)c2ccc(OCC(N)=O)cc2n1-c1ccc(Cl)cc1` [Compound 179, 2-((1-(4-Chlorophenyl)-2-methyl-3-(2-(piperidin-1-yl)acetyl)-1H-indol-6-yl)oxy)acetamide] the value was < 500 nM.
